Source: US9340538B2, “Dihydropyrimidine compounds and their application in pharmaceuticals” (SUNSHINE LAKE PHARMA CO., LTD., priority 2013, dated 2016)
Like-named read-outs stand apart in the source and are kept apart here.

Test system: HBV
Experiment: In-vitro anti-HBV activity in stable HBV-producing cell line (HepG2.2.15), HBV DNA in culture fluid by qPCR
Format: cell-based
Settings: Hepatitis B virus, read-out: HBV (% Inh.) (500 nmol)
Method: In-Vitro Anti-HBV Activity of Compounds in Stable HBV-Producing Cell Line (HepG2.2.15)
HBV DNA contents in cell culture fluid were detected by the qPCR-based assay and percents of HBV inhibition by compounds (% Inh) were calculated. Specific procedures are as follows:
HepG2.2.15 cells were seeded into each well of 96-well plates, 40,000 cells per well. Cells were treated with cell culture medium containing compounds 24 hours after cell seeding. Each compound to detected percent inhibition was in duplicate and the final concentration of each compound was 500 nmol in each well. The compound-containing mediums were refreshed on day 4 post cell seeding. Culture media were collected from the HepG2.2.15 plates on day 7 post cell seeding followed by HBV DNA extraction.
HBV DNA extraction: using QIAamp 96 DNA Blood Kit (QIAGEN 51161).
PCR for quantification: PCR mix was prepared according to PCR system; PCR mix was dispensed to 384-well optical reaction plates (special for quantification); The standard diluted proportionally was added; The sample was added; The plates were sealed with optical adhesive film; PCR system was performed according to programs.
Percent of HBV inhibition of DNA replication by compound was calculated using the following equation: % Inh.=[1-HBV DNA quantity of sample/HBV DNA quantity of DMSO control]*100. II. Assay Results

[1] = 168 h, 500 nmol final concentration, HepG2.2.15 cells, HBV DNA in culture media on day 7 post seeding, vs DMSO control

CCOC(=O)C1=C(CN2CCOC[C@H]2COC(=O)[C@@H](N)C(C)C)NC(c2nccs2)=NC1c1ccc(F)cc1Br (stereo partly drawn) [Example 49, Ethyl 6-(((S)-3-((((S)-2-amino-3-methylbutanoyl)oxy)methyl)morpholino)methyl)-4-(2-bromo-4-fluorophenyl)-2-(thiazol-2-yl)-1,4-dihydropyrimidine-5-carboxylate]
inhibition at 0.5 µM [1]: 96.2%

CCOC(=O)C1=C(CN2CCOCC2C(=O)OC)NC(c2nccs2)=NC1c1ccc(F)cc1Br (centres unmarked) [Example 51, Methyl 4-((6-(2-bromo-4-fluorophenyl)-5-(ethoxycarbonyl)-2-(thiazol-2-yl)-3,6-dihydropyrimidin-4-yl)methyl)morpholine-3-carboxylate]
inhibition at 0.5 µM (HepG2.2.15, 168 h): 91.3%

CCOC(=O)C1=C(CN2CCOC[C@H]2C(=O)NO)NC(c2nccs2)=NC1c1ccc(F)cc1Br (stereo partly drawn) [Example 52, Ethyl 4-(2-bromo-4-fluorophenyl)-6-(((S)-3-(hydroxycarbamoyl)morpholino)methyl)-2-(thiazol-2-yl)-1,4-dihydropyrimidine-5-carboxylate]
inhibition at 0.5 µM [1]: 89.5%

CCOC(=O)C1=C(CN2CCOC[C@H]2C(=O)NOC)NC(c2nccs2)=NC1c1ccc(F)cc1Br (stereo partly drawn) [Example 53, Ethyl 4-(2-bromo-4-fluorophenyl)-6-(((S)-3-(methoxycarbamoyl)morpholino)methyl)-2-(thiazol-2-yl)-1,4-dihydropyrimidine-5-carboxylate]
inhibition at 0.5 µM [1]: 92.6%

CCOC(=O)C1=C(CN2CCOC[C@H]2C(=O)NCCO)NC(c2nccs2)=NC1c1ccc(F)cc1Br (stereo partly drawn) [Example 54, Ethyl 4-(2-bromo-4-fluorophenyl)-6-(((S)-3-((2-hydroxyethyl)carbamoyl)morpholino)methyl)-2-(thiazol-2-yl)-1,4-dihydropyrimidine-5-carboxylate]
inhibition at 0.5 µM [1]: 91%

CCOC(=O)C1=C(CN2CCOC[C@H]2C(=O)NCCOC(C)=O)NC(c2nccs2)=NC1c1ccc(F)cc1Br (stereo partly drawn) [Example 55, Ethyl 6-(((S)-3-((2-acetoxyethyl)carbamoyl)morpholino)methyl)-4-(2-bromo-4-fluorophenyl)-2-(thiazol-2-yl)-1,4-dihydropyrimidine-5-carboxylate]
inhibition at 0.5 µM [1]: 93%

CCOC(=O)C1=C(CN2CCOC[C@H]2C(=O)N(C)OC)NC(c2nccs2)=NC1c1ccc(F)cc1Br (stereo partly drawn) [Example 60, Ethyl 4-(2-bromo-4-fluorophenyl)-6-(((S)-3-(methoxy(methyl)carbamoyl)morpholino)methyl)-2-(thiazol-2-yl)-1,4-dihydropyrimidine-5-carboxylate]
inhibition at 0.5 µM [1]: 94%

CCOC(=O)C1=C(CN2CCOC[C@H]2C(=O)O)NC(c2nc(CC(=O)OC)cs2)=NC1c1ccc(F)cc1Br (stereo partly drawn) [Example 61, (3S)-4-((6-(2-bromo-4-fluorophenyl)-5-(ethoxycarbonyl)-2-(4-(2-methoxy-2-oxoethyl)thiazol-2-yl)-3,6-dihydropyrimidin-4-yl)methyl)morpholine-3-carboxylic acid]
inhibition at 0.5 µM [1]: 91.1%

CCOC(=O)C1=C(CN2CCO[C@H](CO)C2)NC(c2nccs2)=NC1c1ccc(F)cc1Br (stereo partly drawn) [Example 66, Ethyl 4-(2-bromo-4-fluorophenyl)-6-(((S)-2-(hydroxymethyl)morpholino)methyl)-2-(thiazol-2-yl)-1,4-dihydropyrimidine-5-carboxylate]
inhibition at 0.5 µM (HepG2.2.15, 168 h): 88.8%

CCOC(=O)C1=C(CN2CCOCC2C(=O)O)NC(c2nnc(C)s2)=NC1c1ccc(F)cc1Br (centres unmarked) [Example 69, 4-((6-(2-bromo-4-fluorophenyl)-5-(ethoxycarbonyl)-2-(5-methyl-1,3,4-thiadiazol-2-yl)-3,6-dihydropyrimidin-4-yl)methyl)morpholine-3-carboxylic acid]
inhibition at 0.5 µM [1]: 36.5%

CCOC(=O)C1=C(CN2CCOCC2C(=O)O)NC(c2nncs2)=NC1c1ccc(Cl)cc1Cl (centres unmarked) [Example 70, 4-((6-(2,4-dichlorophenyl)-5-(ethoxycarbonyl)-2-(1,3,4-thiadiazol-2-yl)-3,6-dihydropyrimidin-4-yl)methyl)morpholine-3-carboxylic acid]
inhibition at 0.5 µM [1]: 63.6%

CCOC(=O)C1=C(CN2CCOCC2C(=O)O)NC(c2nncs2)=NC1c1ccc(F)cc1Br (centres unmarked) [Example 71, 4-((6-(2-bromo-4-fluorophenyl)-5-(ethoxycarbonyl)-2-(1,3,4-thiadiazol-2-yl)-3,6-dihydropyrimidin-4-yl)methyl)morpholine-3-carboxylic acid]
inhibition at 0.5 µM [1]: 43.4%

CCOC(=O)C1=C(CN2CCOCC2C(=O)OC(C)C)NC(c2nccs2)=NC1c1ccc(F)cc1Br (centres unmarked) [Example 77, Isopropyl 4-((6-(2-bromo-4-fluorophenyl)-5-(ethoxycarbonyl)-2-(thiazol-2-yl)-3,6-dihydropyrimidin-4-yl)methyl)morpholine-3-carboxylate]
inhibition at 0.5 µM [1]: 91.9%

CCOC(=O)C1=C(CN2CCOCC2C(=O)OC(C)C)NC(c2nccs2)=NC1c1ccc(Cl)cc1Cl (centres unmarked) [Example 78, Isopropyl 4-((6-(2,4-dichlorophenyl)-5-(ethoxycarbonyl)-2-(thiazol-2-yl)-3,6-dihydropyrimidin-4-yl)methyl)morpholine-3-carboxylate]
inhibition at 0.5 µM [1]: 87.9%

CCOC(=O)C1=C(CN2CCOCC2C(=O)OCOC(=O)OC(C)C)NC(c2nccs2)=NC1c1ccc(Cl)cc1Cl (centres unmarked) [Example 80, ((Isopropoxycarbonyl)oxy)methyl 4-((6-(2,4-dichlorophenyl)-5-(ethoxycarbonyl)-2-(thiazol-2-yl)-3,6-dihydropyrimidin-4-yl)methyl)morpholine-3-carboxylate]
inhibition at 0.5 µM [1]: 91.9%

CCOC(=O)C1=C(CN2CCOCC2C(=O)NC(C)C)NC(c2nccs2)=NC1c1ccc(Cl)cc1Cl (centres unmarked) [Example 81, Ethyl 4-(2,4-dichlorophenyl)-6-((3-(isopropylcarbamoyl)morpholino)methyl)-2-(thiazol-2-yl)-1,4-dihydropyrimidine-5-carboxylate]
inhibition at 0.5 µM [1]: 91.9%

CCOC(=O)C1=C(CN2CCOCC2C(=O)NC(C)C)NC(c2nccs2)=NC1c1ccc(F)cc1Br (centres unmarked) [Example 82, Ethyl 4-(2-bromo-4-fluorophenyl)-6-((3-(isopropylcarbamoyl)morpholino)methyl)-2-(thiazol-2-yl)-1,4-dihydropyrimidine-5-carboxylate]
inhibition at 0.5 µM [1]: 96%

CCOC(=O)C1=C(CN2CCOC(C(=O)O)C2)NC(c2ncn(C)n2)=NC1c1ccc(F)cc1Br (centres unmarked) [Example 83, 4-((6-(2-bromo-4-fluorophenyl)-5-(ethoxycarbonyl)-2-(1-methyl-1H-1,2,4-triazol-3-yl)-3,6-dihydropyrimidin-4-yl)methyl)morpholine-2-carboxylic acid]
inhibition at 0.5 µM [1]: 36%

CCOC(=O)C1=C(CN2CCOCC2C(=O)O)NC(c2nc(C(F)(F)F)cs2)=NC1c1ccc(Cl)cc1Cl (centres unmarked) [Example 119, 4-((6-(2,4-dichlorophenyl)-5-(ethoxycarbonyl)-2-(4-(trifluoromethyl)thiazol-2-yl)-3,6-dihydropyrimidin-4-yl)methyl)morpholine-3-carboxylic acid]
inhibition at 0.5 µM [1]: 94%

CCOC(=O)C1=C(CN2CCOCC2C(=O)O)NC(c2ncc(F)s2)=NC1c1ccc(F)cc1Cl (centres unmarked) [Example 121, 4-((6-(2-chloro-4-fluorophenyl)-5-(ethoxycarbonyl)-2-(5-fluorothiazol-2-yl)-3,6-dihydropyrimidin-4-yl)methyl)morpholine-3-carboxylic acid]
inhibition at 0.5 µM [1]: 48.5%

CCOC(=O)C1=C(CN2CCOCC2C(=O)O)NC(c2ncc(F)s2)=NC1c1ccc(Cl)cc1Cl (centres unmarked) [Example 122, 4-((6-(2,4-dichlorophenyl)-5-(ethoxycarbonyl)-2-(5-fluorothiazol-2-yl)-3,6-dihydropyrimidin-4-yl)methyl)morpholine-3-carboxylic acid]
inhibition at 0.5 µM [1]: 46.2%

CCOC(=O)C1=C(CN2CCOCC2C(=O)O)NC(c2ncn(C)n2)=NC1c1ccc(F)cc1Br (centres unmarked) [Example 123, 4-((6-(2-bromo-4-fluorophenyl)-5-(ethoxycarbonyl)-2-(1-methyl-1H-1,2,4-triazol-3-yl)-3,6-dihydropyrimidin-4-yl)methyl)morpholine-3-carboxylic acid]
inhibition at 0.5 µM [1]: 37.5%

CCOC(=O)C1=C(CN2CCOCC2C(=O)O)NC(c2nccn2C)=NC1c1ccc(F)cc1Br (centres unmarked) [Example 125, 4-((6-(2-bromo-4-fluorophenyl)-5-(ethoxycarbonyl)-2-(1-methyl-1H-imidazol-2-yl)-3,6-dihydropyrimidin-4-yl)methyl)morpholine-3-carboxylic acid]
inhibition at 0.5 µM [1]: 92.5%

CCOC(=O)C1=C(CN2CCOC(CCCO)C2)NC(c2nccs2)=NC1c1ccc(F)cc1Br (centres unmarked) [Example 133, Ethyl 4-(2-bromo-4-fluorophenyl)-6-((2-(3-hydroxypropyl)morpholino)methyl)-2-(thiazol-2-yl)-1,4-dihydropyrimidine-5-carboxylate]
inhibition at 0.5 µM [1]: 92.6%

CCOC(=O)C1=C(CN2CCOC(CCC(N)=O)C2)NC(c2nccs2)=NC1c1ccc(F)cc1Br (centres unmarked) [Example 135, Ethyl 6-((2-(3-amino-3-oxopropyl)morpholino)methyl)-4-(2-bromo-4-fluorophenyl)-2-(thiazol-2-yl)-1,4-dihydropyrimidine-5-carboxylate]
inhibition at 0.5 µM [1]: 93.3%

CCOC(=O)C1=C(CN2CCOCC2C(=O)NC)NC(c2nccs2)=NC1c1ccc(F)cc1Br (centres unmarked) [Example 136, Ethyl 4-(2-bromo-4-fluorophenyl)-6-((3-(methylcarbamoyl)morpholino)methyl)-2-(thiazol-2-yl)-1,4-dihydropyrimidine-5-carboxylate]
inhibition at 0.5 µM [1]: 95.8%
